Test results published in patent publication US20230028880A1, “CD38-BINDING AGENTS AND USES THEREOF” (Biohaven Therapeutics Ltd., priority 2019, published 2023).
Several values for one entry are separate records, joined by “and”; a condition that tells them apart may be missing. Equal entries are not always repeated. Where two headings read alike, the source gives them in different places. Where no end group is shown, it is not given here. [ ]: non-standard residue; d: D form. Bip = N[C@@H](Cc1ccc(-c2ccccc2)cc1)C(=O)O; NMeF = CN[C@@H](Cc1ccccc1)C(=O)O; Ahp(2) = CCCCC[C@H](N)C(=O)O

Experiments:
Daudi cells [1] = experiment: KILR ADCC killing assay: KILR-transfected Daudi cells with purified NK cells (% dead cells); assay type: cell-based; conditions: for % dead cells, KILR ADCC killing assay: KILR Daudi cells with purified NK cells, duplicate columns
Source text: In some embodiments, CD38-ABT ARMs bind to target cells and antibodies, e.g., human antibodies. In some embodiments, such ternary structures present antibodies to effector cells such as NK cell and bind to, e.g., CD16a receptors. […] Daudi cells were transfected with KILR reporter construct (DiscoverX #97-0002). An attenuated lentivirus was designed to deliver a Moloney Murine Leukemia Virus (MMLV) engineered to drive expression of a housekeeping gene tagged with Enhanced ProLabel (ePL) a beta-Galactosidase (beta-gal) reporter fragment. This construct was designed to remain inside cells. Death leads to the release of the KILR reporter protein into the medium. Detection reagent (DiscoverX #97-0001L) contained the complementing beta-gal reporter fragment enzyme acceptor (EA). The two components combined to generate a chemiluminescent signal.

Daudi cells [2] = experiment: Ternary binding assay: recruitment of PE-labeled human IgG1k to Daudi cells (flow cytometry, MFI); assay type: cell-based; conditions: for MFI, recruitment of PE-labeled human IgG1k to Daudi cells: duplicate columns
Description: Various technologies can be utilized to assess and/or characterize recruitment of antibodies to target cells, e.g., cancer cells. One such assay is a ternary binding assay. An exemplary protocol is described herein. Compounds were diluted in DMSO (MP 191418) to 1000× the starting concentration used in the assay into a 96 well polypropylene plate (Corning 3357). They were then serially diluted in ½ log increments to generate 8-12 concentrations in DMSO (assay dependent). These DMSO stocks were then step diluted 1/100 into PBS (VWR Cat. #20012043). Step diluted compound range was then added into the polypropylene assay plate 1/10 the volume of the assay volume. Daudi (ATCC CCL-213), a non-adherent cell line, were counted and centrifuged and resuspended at a concentration of 100,000 cells per 90 ul in Flow buffer: 1% BSA (American Bio AB01088-00100); 0.5 mM EDTA (VWR 45001-122); PBS (VWR Cat. #20012043) with 11.1 ug/mL human IgG1k Phycoerythrin labeled (SouthernBiotech #0151K-09 PE). The cells were then added into the polypropylene plate with the step diluted compounds and incubated at 37° C. for 30 min. At the end of the incubation, the cells were centrifuged and washed 2× with How buffer containing 0.5% Tween 20 (BP337-500). Samples were analyzed on a BD FacsCelesta. Mean fluorescence was analyzed using Graphpad Prism and curves were fit using log(inhibitor) vs. response—Variable slope (four parameters).

[3] = tested on: Effector cells (ADCC reporter cells) with Daudi cells; experiment: ADCC reporter assay: Daudi cells, IVIG and ADCC reporter effector cells (luciferase, RLU); assay type: cell-based; conditions: IVIG; for Luminescence, ADCC reporter assay: 18 h, duplicate columns
Description: Daudi (ATCC CCL-213) cells were resuspended in Opti-MEM (Thermo Fisher Scientific #31985070), counted (Life Technologies Countless II cell counter) and plated (5,000 cells in 25 uL/well; Corning plates: 3917). Compounds w diluted in DMSO (MP 191418) to 1000× the starting concentration used in the assay into a 96 well polypropylene plate (Corning 3357). They were then serially diluted in ½ log increments to generate 8 concentrations in DMSO (assay dependent). These DMSO stocks were then step diluted 1/250 into Opti-MEM. Step diluted compound range was then added into the polypropylene assay plate 25 uL/well. The human antibody solution (Grifols IVIG Fleogogamma #61953-0005-2) was diluted to 40 ug/mL and added 25 uL/well. Effector cells (ADCC reporter cells—Promega kit: G7018) were added 37,500 in 25 uL/well. The assay was then incubated 18 h at 37° C. Following the induction period, the plate was equilibrated to 25° C. followed the addition of the luciferase substrate (75 uL/well, 1 vial in 10 mL of Bio-Glo assay buffer, Promega kit: G7018). The luminescence was measured (Biotek Synergy H1 microplate reader).

CD38 [4] = target: T1, CD38 (human, UniProt P28907 43-300, limits assumed); experiment: ELISA; larger values represent binding
T1 construct: also called cluster of differentiation 38; cyclic ADP ribose hydrolase

CD38 [5] = target: T1, CD38; experiment: ELISA; larger values represent binding; remark: listed apart in the source

With `CCCCC[C@@H]1NC(=O)[C@H](CCCNC(=N)N)NC(=O)[C@H](C)NC(=O)CSC[C@@H](C(=O)NCCOCCOCCC(=O)NCCOCCOCCC(=O)N[C@@H](CC(=O)O)C(=O)N[C@H]2CSSC[C@@H](C(=O)N[C@H](C(=O)O)[C@@H](C)O)NC(=O)[C@H](Cc3c[nH]c4ccccc34)NC(=O)[C@H](C(C)C)NC(=O)[C@H](CC(C)C)NC(=O)[C@H](CCC(=O)O)NC(=O)CNC(=O)[C@H](CC(C)C)NC(=O)[C@H](Cc3c[nH]cn3)NC(=O)[C@H](Cc3c[nH]c4ccccc34)NC(=O)[C@H](C)NC2=O)NC(=O)[C@H](CC(=O)O)NC(=O)[C@H](CCCCC)NC(=O)[C@H](Cc2ccc(-c3ccccc3)cc2)NC(=O)[C@H](CC(C)C)NC(=O)[C@H](C(C)C)NC(=O)CNC(=O)[C@H](CC(=O)O)NC(=O)[C@H](Cc2c[nH]cn2)NC(=O)[C@H](Cc2ccc(O)cc2)NC1=O` [I-34] the “% dead cells, KILR ADCC killing assay” value (Daudi cells [1]; compound 1 nM) was 13.9% and 15.8%, the “% dead cells, KILR ADCC killing assay” value (Daudi cells [1]; compound 3 nM) was 13.6% and 13.4% and the “% dead cells, KILR ADCC killing assay” value (Daudi cells [1]; compound 10 nM) was 14.9% and 14.5%. The “% dead cells, KILR ADCC killing assay” value (Daudi cells [1]; compound 30 nM) was 17.8% and 16.4%, the “% dead cells, KILR ADCC killing assay” value (Daudi cells [1]; compound 100 nM) was 19.7% and 16.9% and the “% dead cells, KILR ADCC killing assay” value (Daudi cells [1]; compound 300 nM) was 18.9% and 18.8%. The “% dead cells, KILR ADCC killing assay” value (Daudi cells [1]; compound 1000 nM) was 15.3% and 15.9%, the “% dead cells, KILR ADCC killing assay” value (Daudi cells [1]; compound 3000 nM) was 14.2% and 13.5% and the “MFI, recruitment of PE-labeled human IgG1k to Daudi cells” value (shortened to “MFI, recruitment”) (Daudi cells [2]; compound 3 nM) was 2094 and 1853. For the same molecule, the “MFI, recruitment” value (Daudi cells [2]; compound 10 nM) was 11368 and 6266, the “MFI, recruitment” value (Daudi cells [2]; compound 30 nM) was 15113 and 15626 and the “MFI, recruitment” value (Daudi cells [2]; compound 100 nM) was 30043 and 19748. The “MFI, recruitment” value (Daudi cells [2]; compound 300 nM) was 24939 and 24944, the “MFI, recruitment” value (Daudi cells [2]; compound 1000 nM) was 27313 and 25699 and the “MFI, recruitment” value (Daudi cells [2]; compound 3000 nM) was 19464 and 23695. For the same molecule, the EC50 ([3]; ADCC reporter assay) was 6.7 nM, the “Luminescence, ADCC reporter assay” value ([3]; compound 1 nM) was 4355 RLU and 4667 RLU and the “Luminescence, ADCC reporter assay” value ([3]; compound 3 nM) was 5459 RLU and 5627 RLU. The “Luminescence, ADCC reporter assay” value ([3]; compound 10 nM) was 13353 RLU and 13815 RLU, the “Luminescence, ADCC reporter assay” value ([3]; compound 30 nM) was 16833 RLU and 17160 RLU and the “Luminescence, ADCC reporter assay” value ([3]; compound 100 nM) was 19999 RLU and 21759 RLU. For the same molecule, the “Luminescence, ADCC reporter assay” value ([3]; compound 300 nM) was 19948 RLU and 20759 RLU, the “Luminescence, ADCC reporter assay” value ([3]; compound 1000 nM) was 12953 RLU and 13376 RLU and the “Luminescence, ADCC reporter assay” value ([3]; compound 3000 nM) was 8601 RLU and 9733 RLU.

For “I-38: "A mixture of compound 6 ... compound 2 ... DIEA ... to get compound I-38 (Q1 ...) and compound I-38 (Q2 ...)" (ARXYHDGVLXXDCXXXKXDCAWHLGELVWCT; not fully specified; D-residues; cyclised or stapled)”, the EC50 (Daudi cells [1]; KILR ADCC killing assay, Daudi cells with purified NK cells) was greater than 3000 nM, the “% dead cells, KILR ADCC killing assay” value (Daudi cells [1]; compound 1 nM) was 10.4% and 10.9% and the “% dead cells, KILR ADCC killing assay” value (Daudi cells [1]; compound 3 nM) was 10.2% and 10.7%. For the same molecule, the “% dead cells, KILR ADCC killing assay” value (Daudi cells [1]; compound 30 nM) was 10.6% and 11.6%, the “% dead cells, KILR ADCC killing assay” value (Daudi cells [1]; compound 100 nM) was 10.9% and the “% dead cells, KILR ADCC killing assay” value (Daudi cells [1]; compound 300 nM) was 10.9% and 11.1%. For the same molecule, the “% dead cells, KILR ADCC killing assay” value (Daudi cells [1]; compound 1000 nM) was 11.4% and 11.7%, the “% dead cells, KILR ADCC killing assay” value (Daudi cells [1]; compound 3000 nM) was 10.3% and 10.8% and the IC50 (Daudi cells [2]; ternary binding assay, Daudi cells, human IgG1k PE) was greater than 3000 nM.

B1: A R Ahp Y H D G V L A Ahp D C (peptide)
peptide: AR[Ahp(2)]YHDGVLA[Ahp(2)]DC
modifications: not fully specified (N-terminus, bridges); printed as A R Ahp Y H D G V L A Ahp D C
notes: Alanine variant at position 10
With B1 the “Binding Assay (ELISA signal)” value (CD38 [4]) was 0.09.

B2: A R Ahp Y H D G V L Bph A D C (peptide)
peptide: AR[Ahp(2)]YHDGVL[Bip]ADC
modifications: not fully specified (N-terminus, bridges); printed as A R Ahp Y H D G V L Bph A D C
notes: Alanine variant at position 11
With B2 the “Binding Assay (ELISA signal)” value (CD38 [4]) was 0.2.

B3: A R Ahp Y H D G V L Bph Ahp A C (peptide)
peptide: AR[Ahp(2)]YHDGVL[Bip][Ahp(2)]AC
modifications: not fully specified (N-terminus, bridges); printed as A R Ahp Y H D G V L Bph Ahp A C
notes: Alanine variant at position 12
With B3 the “Binding Assay (ELISA signal)” value (CD38 [4]) was 1.79.

B4: A A H MeF V L P Bph V W V C (peptide)
peptide: AAH[NMeF]VLP[Bip]VWVC
modifications: not fully specified (N-terminus, bridges); printed as A A H MeF V L P Bph V W V C
In the case of B4, the “Binding Assay (ELISA signal)” value (CD38 [5]) is reported as 0.84.

B5: A L A MeF V L P Bph V W V C (peptide)
peptide: ALA[NMeF]VLP[Bip]VWVC
modifications: not fully specified (N-terminus, bridges); printed as A L A MeF V L P Bph V W V C
notes: Alanine variant at position 3
With B5 the “Binding Assay (ELISA signal)” value (CD38 [5]) was 0.37.

B6: A A Ahp Y H D G V L Bph Ahp D C (peptide)
peptide: AA[Ahp(2)]YHDGVL[Bip][Ahp(2)]DC
modifications: not fully specified (N-terminus, bridges); printed as A A Ahp Y H D G V L Bph Ahp D C
With B6 the “Binding Assay (ELISA signal)” value (CD38 [4]) was 0.6.

B7: A R A Y H D G V L Bph Ahp D C (peptide)
peptide: ARAYHDGVL[Bip][Ahp(2)]DC
modifications: not fully specified (N-terminus, bridges); printed as A R A Y H D G V L Bph Ahp D C
notes: Alanine variant at position 3
In the case of B7, the “Binding Assay (ELISA signal)” value (CD38 [4]) is reported as 0.11.

B8: A R Ahp A H D G V L Bph Ahp D C (peptide)
peptide: AR[Ahp(2)]AHDGVL[Bip][Ahp(2)]DC
modifications: not fully specified (N-terminus, bridges); printed as A R Ahp A H D G V L Bph Ahp D C
notes: Alanine variant at position 4
With B8 the “Binding Assay (ELISA signal)” value (CD38 [4]) was 0.11.

B9: A R Ahp Y A D G V L Bph Ahp D C (peptide)
peptide: AR[Ahp(2)]YADGVL[Bip][Ahp(2)]DC
modifications: not fully specified (N-terminus, bridges); printed as A R Ahp Y A D G V L Bph Ahp D C
notes: Alanine variant at position 5
B9 was tested, and the “Binding Assay (ELISA signal)” value (CD38 [4]) was 0.28.

B10: A R Ahp Y H A G V L Bph Ahp D C (peptide)
peptide: AR[Ahp(2)]YHAGVL[Bip][Ahp(2)]DC
modifications: not fully specified (N-terminus, bridges); printed as A R Ahp Y H A G V L Bph Ahp D C
notes: Alanine variant at position 6
In the case of B10, the “Binding Assay (ELISA signal)” value (CD38 [4]) is reported as 0.93.

B11: A R Ahp Y H D A V L Bph Ahp D C (peptide)
peptide: AR[Ahp(2)]YHDAVL[Bip][Ahp(2)]DC
modifications: not fully specified (N-terminus, bridges); printed as A R Ahp Y H D A V L Bph Ahp D C
notes: Alanine variant at position 7
For B11, the “Binding Assay (ELISA signal)” value (CD38 [4]) was 1.49.

B12: A R Ahp Y H D G A L Bph Ahp D C (peptide)
peptide: AR[Ahp(2)]YHDGAL[Bip][Ahp(2)]DC
modifications: not fully specified (N-terminus, bridges); printed as A R Ahp Y H D G A L Bph Ahp D C
notes: Alanine variant at position 8
B12 was tested, and the “Binding Assay (ELISA signal)” value (CD38 [4]) was 0.3.

B13: A R Ahp Y H D G V A Bph Ahp D C (peptide)
peptide: AR[Ahp(2)]YHDGVA[Bip][Ahp(2)]DC
modifications: not fully specified (N-terminus, bridges); printed as A R Ahp Y H D G V A Bph Ahp D C
notes: Alanine variant at position 9
With B13 the “Binding Assay (ELISA signal)” value (CD38 [4]) was 0.08.
